Data on 10 compounds can be found in US6800633B2, “Pyrrolo[2,3d]pyrimidine compositions and their use” (OSI Pharmaceuticals, Inc., priority 1998, dated 2004).

Where two headings read alike, the source gives them in different places.

Data set [1] has as its target T1, human A1 adenosine receptor (Homo sapiens, UniProt P30542).
T1 sequence (P30542 1-326): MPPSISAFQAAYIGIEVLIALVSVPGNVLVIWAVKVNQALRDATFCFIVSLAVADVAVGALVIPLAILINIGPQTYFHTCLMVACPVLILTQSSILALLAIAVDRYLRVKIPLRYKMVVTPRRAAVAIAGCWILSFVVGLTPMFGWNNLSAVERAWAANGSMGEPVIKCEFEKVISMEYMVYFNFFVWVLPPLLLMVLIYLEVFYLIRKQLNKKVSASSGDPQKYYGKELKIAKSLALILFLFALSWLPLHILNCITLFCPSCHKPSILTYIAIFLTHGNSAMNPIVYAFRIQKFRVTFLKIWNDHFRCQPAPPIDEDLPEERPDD
The settings on record: A1 adenosine receptor agonist; cited from earlier work.

Data set [2] has as its target T2, human A2b receptor subtype (Homo sapiens, UniProt P29275).
T2 construct: expressed in transfected cells; host or cells: HEK293
T2 sequence (P29275 1-332): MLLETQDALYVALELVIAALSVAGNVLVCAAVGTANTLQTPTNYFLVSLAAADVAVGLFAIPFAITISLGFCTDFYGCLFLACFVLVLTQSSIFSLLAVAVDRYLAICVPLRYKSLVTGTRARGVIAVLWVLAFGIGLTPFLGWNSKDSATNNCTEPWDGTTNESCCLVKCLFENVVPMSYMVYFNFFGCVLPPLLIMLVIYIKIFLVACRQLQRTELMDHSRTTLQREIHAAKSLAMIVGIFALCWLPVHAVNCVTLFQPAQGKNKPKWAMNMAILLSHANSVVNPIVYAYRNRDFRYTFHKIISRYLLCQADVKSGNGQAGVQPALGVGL
The data set is described as follows: Adenosine 2b receptor subtype competition radioligand binding, [3H]DPCPX, HEK293 membranes.

In data set [3] the target is T3, human A3 receptor subtype (Homo sapiens, UniProt P0DMS8).
T3 sequence (P0DMS8 1-318): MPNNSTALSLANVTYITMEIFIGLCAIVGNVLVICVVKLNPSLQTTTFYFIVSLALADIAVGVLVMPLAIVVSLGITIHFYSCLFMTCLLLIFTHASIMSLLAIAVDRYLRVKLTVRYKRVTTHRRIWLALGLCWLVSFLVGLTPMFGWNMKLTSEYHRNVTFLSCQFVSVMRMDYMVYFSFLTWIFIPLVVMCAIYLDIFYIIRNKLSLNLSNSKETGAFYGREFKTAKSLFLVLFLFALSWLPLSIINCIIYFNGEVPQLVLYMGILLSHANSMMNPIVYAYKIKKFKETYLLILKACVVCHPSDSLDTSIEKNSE
Briefly: Adenosine 3 receptor competition radioligand binding, [125I]AB-MECA, HEK293 membranes.

Data set [4] concerns the target T4, human A1 receptor subtype (Homo sapiens, UniProt P30542).
T4 sequence (P30542 1-326): T1 sequence (P30542 1-326)

In data set [5] the target is human A2a receptor subtype (Homo sapiens, UniProt P29274). Briefly: Adenosine 2a receptor subtype competition radioligand binding, [3H]CGS-21680, HEK293 membranes.
In data set [6] the target is T4, human A1 receptor subtype. The data set is described as follows: biochemical.
Data set [7] in a line: Water solubility (footnote to Table 13). Format: physicochemical.
Where [8] appears, read: Table 13, read-out: Binding Ki (nm) A2b.
Setting [9] is: Table 13, given as %, footnote 8: % activity @ 10 μM.

Sequence of human A2a receptor subtype (P29274 whole entry): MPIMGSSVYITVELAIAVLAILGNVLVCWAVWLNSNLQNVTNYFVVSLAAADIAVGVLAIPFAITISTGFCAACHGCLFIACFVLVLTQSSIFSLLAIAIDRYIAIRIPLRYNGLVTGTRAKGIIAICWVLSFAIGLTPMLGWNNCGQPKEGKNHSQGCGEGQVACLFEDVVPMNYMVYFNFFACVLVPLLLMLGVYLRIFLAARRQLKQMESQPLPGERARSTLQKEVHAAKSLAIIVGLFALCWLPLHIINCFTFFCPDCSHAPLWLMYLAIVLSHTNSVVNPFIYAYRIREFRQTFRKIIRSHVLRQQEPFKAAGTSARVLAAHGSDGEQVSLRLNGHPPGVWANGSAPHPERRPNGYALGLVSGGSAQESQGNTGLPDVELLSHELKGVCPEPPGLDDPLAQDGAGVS

For the compound `CC(Cc1ccccc1)Nc1ncnc2c1ncn2[C@@H]1O[C@H](CO)[C@@H](O)[C@H]1O` (single isomer, unassigned; (-)) [R-PIA, (−)-N6-(2-phenylisopropyl)-adenosine], the reported affinity entry in data set [1] is on record as “approximately 50 nM”.
One may read the Ki as the dissociation constant of the complex between target and ligand, obtained from inhibition or displacement. For `Cc1[nH]c2nc(-c3ccccc3)nc(NC3CCC(O)CC3)c2c1C` (stereo not shown) [CDS-046142], the Ki in data set [2] (setting [8]) stood at 138 nM; in data set [3], 21.5 nM.
Turning to `Cc1[nH]c2nc(-c3ccccc3)nc(NC3CCC(NS(C)(=O)=O)CC3)c2c1C` (stereo not shown) [CDS-056176], the Ki in data set [4] (read-out: A1 Binding Ki, membranes from yeast cells transformed with human A1 receptor, [3H]DPCPX 1.0 nM) is above 10000 nM.
Turning to `Cc1[nH]c2nc(-c3cccs3)nc(NC3CCC(O)CC3)c2c1C` (stereo not drawn) [CDS-090890, 4-(4-trans-hydroxycyclohexyl)amino-5,6-dimethyl-2-(2-thienyl)-7H-pyrrolo[2,3d]pyrimidin-4-amine], in data set [2] (setting [9]), the “A2b binding, % activity” value is 30%. Also, the values for the Ki in data set [3] and in data set [5] were 9.9 nM and 731 nM, respectively.
On to `CNC(=O)NCCCNc1nc(-c2ccccc2)nc2[nH]c(C)c(C)c12` [CDS-121180], for which, in data set [5] (setting [9]), the “A2a binding, % activity” value is 76%.
Take `Cc1[nH]c2nc(-c3ccccc3)nc(NCCCNC(=O)CCN)c2c1C` [CDS-121181]: the Ki amounted to 3400 nM in data set [2] (setting [8]) and 75000 nM in data set [6].
On to `Cc1[nH]c2nc(-c3ccccc3)nc(NCCNC(=O)C3(N)CC3)c2c1C` [CDS-123264], for which the water solubility entry in data set [7] is reported as “^3water soluble;”. Also, the “A1 binding, % activity” value in data set [4] (setting [9]) came to 30%.
As to `CC(=O)NCCNc1nc(-c2ccccc2)nc2[nH]c(COc3ccccc3)cc12` [CDS-129851, 4-(2-acetylaminoethyl)amino-6-phenoxymethyl-2-phenyl-7H-pyrrolo[2,3d]pyrimidine], the Ki in data set [6] is 41.7 nM; in data set [3] it was 14.6 nM.
Consider `O[C@H]1CC[C@H](Nc2nc(-c3ccncc3)nc3[nH]ccc23)CC1` [CDS-131921, 4-(trans-4-hydroxycyclohexyl)amino-2-(4-pyridyl)-7H-pyrrolo[2,3d]pyrimidine], for which the “A3 binding, % activity @ 10 μM” value in data set [3] (Table 13, 10 μM) stood at 54%^8.
On to `CC(=O)NCCNc1nc(-c2ccccc2)nc2[nH]c(Cn3ccccc3=O)cc12` [CDS-143988, 4-(2-acetylaminoethyl)amino-6-(N-pyridin-2-one)methyl-2-phenyl-7H-pyrrolo[2,3d]pyrimidine], for which the Ki in data set [2] (Table 14, read-out: Binding Data Ki (nM) A2B) was 47 nM.
